Measurements as given in patent US20180185374A1, “INHIBITORS OF MTOR KINASE AS ANTI-VIRAL AGENTS” (THE TRUSTEES OF PRINCETON UNIVERSITY, priority 2009, published 2018).

Assays:
[1] = tested on: 4EBP1; assay: 4EBP1 phosphorylation in MCMV-infected MEFs, Western blot; assay type: cell-based, mouse; conditions: Torin1 250 nM
Experimental: FIG. 5. […] Fresh serum-free medium containing drugs was added every other day. At the indicated times, cell-free supernatants were harvested, and the amount of virus in the supernatant was quantified by the TCID50 method. Error bars represent the standard errors of the means form two independent experiments performed in duplicate. […] At 48 hpi the phosphorylation state of the indicated mTORC1 targets was analyzed by a Western blot assay by using antibodies to phosphorylated targets (4EBP1-PT^37/46 and rpS6-PS^235/6) and total proteins. The results are representative of three independent experiments.
FIG. 6. mTORC2 and its target, Akt, are not the source of rapamycin-resistant mTOR activity. […] At 6 days post infection the amount of MCMV in cell-free supernatants was determined by the TCID50 method. […] At 48 hpi, the phosphorylation state of mTORC1 targets was assessed by Western blotting using antibodies specific for the indicated proteins. (C) Confirmation of the genotype of Rictor-null MEFs. Total DNA was isolated from wild-type and Rictor-null MEFs, and the genotype was confirmed by use of PCR. (D) Same as above (A) except that Akt1- and Akt2-null MEFs were used. (E) Same as above (B) except that Akt1- and Akt2-null MEFs were used. For B and E, the error bars represent the standard errors of the means from at least two independent experiments, each performed in duplicate. For […], tubulin was assayed as a loading control. […] Protein from wild-type or mutant MEFs was analyzed by Western blotting by use of an antibody specific for Akt.
The identification of the functional roles of proteins in the mTOR signaling pathway has been facilitated by the generation of knockout mouse strains lacking individual mTOR components. […] Also as observed for HCMV (FIG. 4A), MCMV infection induced mTORC1 activity, as measured by the increased phosphorylation of rpS6. […]
We first investigated the requirement for mTORC2 for the replication of MCMV. […] Finally, that 4EBP1 was not detected in lysates of these cells by Western blot assay confirmed the phenotype of the MEFs.

[2] = tested on: 4EBP1; assay: 4EBP1 phosphorylation in HCMV-infected fibroblasts, Western blot; assay type: cell-based, human; conditions: rapamycin 20 nM, Torin1 250 nM; 3 PFU/cell
Experimental: FIG. 4. Rapamycin-resistant mTOR activity is required for 4EBP1 phosphorylation and eIF4F complex integrity during HCMV infection. Serum-starved confluent human fibroblasts were infected with HCMV at a multiplicity of 3 PFU/cell. […] (A) At 48 hpi the phosphorylation status of mTORC1 targets was assessed by Western blot assay by using antibodies to phosphorylated targets (4EBP1-PT^37/46 and rpS6-PS^235/6) and total proteins. Tubulin was assayed as a loading control. (B) Same as above (A) except that cells were harvested at the indicated times. (C and D) After mock infection (M) or infection with HCMV (WT) at a multiplicity of 3 PFU/cell, cultures were harvested at the indicated times. Equivalent amounts of protein from each sample were incubated with m^7GTP-Sepharose, and the isolated protein complexes were analyzed by Western blotting using the indicated antibodies to the eIF4F complex and 4EBP1. In all cases the results are representative of at least two independent experiments. lys, lysate.
HCMV infection induces mTORC1 activity, but the phosphorylation of mTORC1 targets is differentially sensitive to the mTORC1 inhibitor rapamycin. […] Total 4EBP1, rpS6, and tubulin levels were monitored to control for protein recovery. […]

CCC(=O)N1CCN(c2ccc(-n3c(=O)ccc4cnc5ccc(-c6cnc7ccccc7c6)cc5c43)cc2C(F)(F)F)CC1 [Torin1]
4EBP1 phosphorylation ([1]; Akt1/Akt2-null MEFs): inhibited
4EBP1 phosphorylation ([1]; Rictor-null MEFs, 48 hpi): effectively inhibited
phosphorylation of 4EBP1 in MCMV-infected MEFs ([1]; wild-type MEFs, 48 hpi, rapamycin 20 nM, LY294002 20 μM): inhibited
phosphorylation of 4EBP1 during HCMV infection [2]: substantially blocked
